System: Hs578T complex spheroid growth, percent test/control
Experiment: Anticancer human tumor Hs578T cell line growth inhibition [AhR];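 note: luminescent viability signal as a proxy for spheroid growth; spheroids exposed to agents for one week after three days of growth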
Settings: for IC50: curve of first compound; for viability, T/C: stronger effect = lower value
Source text: Multicellular complex tumor spheroid response to aryl hydrocarbon receptor antagonists in combination with a variety of drugs and investigational agents in selected tumor cell lines
The current study was undertaken to assess response to aryl hydrocarbon receptor antagonists in combination with standard-of-care drugs and investigational agents in solid tumor complex spheroid models. Complex spheroids include a stromal component modeled by human endothelial cells (HUVEC) and fibroblasts modeled by human mesenchymal stem cells (MSCs). The concentration ranges selected for each drug and investigational agent were based upon clinically achievable concentrations if the clinical Cmax of the agent was known.
Compounds. The drugs and investigational agents: BAY 2416964 (NSC825713), GNF351 (NSC835774), CH-223191 (NSC835775), CPI-455 (NSC825282), aza-TdCyd (NSC777586), decitabine (NSC127716), belinostat (NSC758774), entinostat (NSC756642), pevonedistat (NSC761192), tazemetostat (NSC777109), talazoparib (NSC765396), olaparib (NSC753686), selinexor (NSC780203), nedisertib (M3814, NSC802822), bortezomib (NSC756655), venetoclax (NSC766270), doxorubicin (NSC123127), elimusertib (BAY189344, NSC800525), ceralasertib (AZD6738, NSC777638), TAK-243 (NSC785004), alisertib (NSC759677), etoposide (NSC141540), topotecan (NSC609699), eribulin (NSC707389), gemcitabine (NSC613327), carboplatin (NSC241240), cisplatin (NSC119875), and SN-38 (NSC673596) were obtained from the National Cancer Institute (NCI) Developmental Therapeutics Program Chemical Repository (32). The FDA-approved anticancer drug set is available from the Developmental Therapeutics Program at https://dtp.cancer.gov/organization/dscb/obtaining/available plates.htm. […] The stock solutions were prepared in dimethyl sulfoxide (DMSO, Sigma-Aldrich, St. Louis, MO, cat. D2650), except for the platinum compounds which were prepared in saline (Quality Biological, Gaithersburg, MD, cat. 114-055-101), at 800-fold the tested concentration and stored at -70 degrees C prior to their use. All drugs and investigational agents were tested over a range starting from a high concentration at or near the clinical Cmax and decreasing in half-log increments. If the clinical Cmax for an agent had not been determined, the highest concentration tested was 10 microM (Table 1).
Cell Culture. All cells were maintained in an incubator at 37 degrees C and 5% CO2 with 95% humidity. The PDC lines were cultured according to standard operating procedures established by the NCI PDMR (https://pdmr.cancer.gov). Briefly, all PDCs were thawed and cultured in Matrigel-coated flasks prepared with a working solution of 1X Ham's F-12 nutrient mix, without supplementation (Invitrogen, Waltham, MA, cat. 11765054), 100 U/mL penicillin-streptomycin (Invitrogen, cat. 15140122), and 2.5% Matrigel (Corning Inc., Corning, NY, cat. 354248) for the first three passages. All PDCs were cultured in complete DMEM/F-12 media containing advanced DMEM/F-12 (Invitrogen, cat. 12634028), 4.9% defined fetal bovine serum, heat inactivated (HyClone Laboratories Inc., Logan, UT, cat. SH30070.03HI), 389 ng/mL hydrocortisone (Sigma-Aldrich, cat. H4001), 9.7 ng/mL human EGF recombinant protein (Invitrogen, cat. PHG0313), 23.4 microg/mL adenine (Sigma-Aldrich, cat. A2786), 97.3 U/mL penicillin-streptomycin (Invitrogen, cat. 15140122), 1.9 mM L-glutamine (Invitrogen, cat. 25030081), and 9.7 microM Y-27632 dihydrochloride (Tocris Bioscience, Bristol, United Kingdom, cat. 1254). The PDCs were cultured in complete DMEM/F12 media without 10 microM Y-27632 dihydrochloride for at least two passages prior to the screen. The established cell lines NCI-H1341 and […] were cultured in DMEM/F-12, HEPES (Invitrogen, cat. 11330032), 5% defined fetal bovine serum (HyClone Laboratories Inc., cat. SH30070.03), ITS premix universal culture supplement [insulin (5 microg/mL), transferrin (5 microg/mL), and selenious acid (5 ng/mL)] […]

[1] = second compound 0.1 µM, first compound 0.0316 µM
[2] = second compound 0.1 µM, first compound 0.1 µM
[3] = second compound 0.1 µM, first compound 0.316 µM
[4] = second compound 0.1 µM, first compound 1 µM
[5] = second compound 0.1 µM, first compound 3.16 µM
[6] = second compound 0.1 µM, first compound 10 µM
[7] = second compound 0.316 µM, first compound 0.0316 µM
[8] = second compound 0.316 µM, first compound 0.1 µM
[9] = second compound 0.316 µM, first compound 0.316 µM
[10] = second compound 0.316 µM, first compound 1 µM
[11] = second compound 0.316 µM, first compound 3.16 µM
[12] = second compound 0.316 µM, first compound 10 µM
[13] = second compound 1 µM, first compound 0.0316 µM
[14] = second compound 1 µM, first compound 0.1 µM
[15] = second compound 1 µM, first compound 0.316 µM
[16] = second compound 1 µM, first compound 1 µM
[17] = second compound 1 µM, first compound 3.16 µM
[18] = second compound 1 µM, first compound 10 µM
[19] = second compound 3.16 µM, first compound 0.0316 µM
[20] = second compound 3.16 µM, first compound 0.1 µM
[21] = second compound 3.16 µM, first compound 0.316 µM
[22] = second compound 3.16 µM, first compound 1 µM
[23] = second compound 3.16 µM, first compound 3.16 µM
[24] = second compound 3.16 µM, first compound 10 µM
[25] = second compound 10 µM, first compound 0.0316 µM
[26] = second compound 10 µM, first compound 0.1 µM
[27] = second compound 10 µM, first compound 0.316 µM
[28] = second compound 10 µM, first compound 1 µM
[29] = second compound 10 µM, first compound 3.16 µM
[30] = second compound 10 µM, first compound 10 µM

CC(C)CC(NC(=O)C(Cc1ccccc1)NC(=O)c1cnccn1)B(O)O (stereo not given) + CC(CO)NC(=O)c1cc(-c2ccc(Cl)cc2)nn(-c2cnn(C)c2)c1=O
IC50 (second compound 0.1 µM): 4.72 nM
IC50 (second compound 0.316 µM): 4.44 nM
IC50 (second compound 1 µM): 4.61 nM
IC50 (second compound 3.16 µM): 5.03 nM
IC50 (second compound 10 µM): 3.79 nM
viability, T/C (second compound 0.1 µM, first compound 0.000949 µM): 97.9%
viability, T/C (second compound 0.1 µM, first compound 0.003 µM): 75.7%
viability, T/C (second compound 0.1 µM, first compound 0.00949 µM): 10.4%
viability, T/C (second compound 0.1 µM, first compound 0.03 µM): 0.34%
viability, T/C (second compound 0.1 µM, first compound 0.0949 µM): 0.56%
viability, T/C (second compound 0.1 µM, first compound 0.3 µM): 0.73%
viability, T/C (second compound 0.316 µM, first compound 0.000949 µM): 109%
viability, T/C (second compound 0.316 µM, first compound 0.003 µM): 72.6%
viability, T/C (second compound 0.316 µM, first compound 0.00949 µM): 6.27%
viability, T/C (second compound 0.316 µM, first compound 0.03 µM): 0.48%
viability, T/C (second compound 0.316 µM, first compound 0.0949 µM): 0.41%
viability, T/C (second compound 0.316 µM, first compound 0.3 µM): 0.41%
viability, T/C (second compound 1 µM, first compound 0.000949 µM): 102%
viability, T/C (second compound 1 µM, first compound 0.003 µM): 72%
viability, T/C (second compound 1 µM, first compound 0.00949 µM): 13.1%
viability, T/C (second compound 1 µM, first compound 0.03 µM): 0.32%
viability, T/C (second compound 1 µM, first compound 0.0949 µM): 0.27%
viability, T/C (second compound 1 µM, first compound 0.3 µM): 0.39%
viability, T/C (second compound 3.16 µM, first compound 0.000949 µM): 102%
viability, T/C (second compound 3.16 µM, first compound 0.003 µM): 80.1%
viability, T/C (second compound 3.16 µM, first compound 0.00949 µM): 13.2%
viability, T/C (second compound 3.16 µM, first compound 0.03 µM): 0.29%
viability, T/C (second compound 3.16 µM, first compound 0.0949 µM): 0.26%
viability, T/C (second compound 3.16 µM, first compound 0.3 µM): 0.35%
viability, T/C (second compound 10 µM, first compound 0.000949 µM): 85.6%
viability, T/C (second compound 10 µM, first compound 0.003 µM): 59.8%
viability, T/C (second compound 10 µM, first compound 0.00949 µM): 11.6%
viability, T/C (second compound 10 µM, first compound 0.03 µM): 0.72%
viability, T/C (second compound 10 µM, first compound 0.0949 µM): 0.38%
viability, T/C (second compound 10 µM, first compound 0.3 µM): 0.53%

Nc1ccccc1NC(=O)c1ccc(CNC(=O)OCc2cccnc2)cc1 + CC(CO)NC(=O)c1cc(-c2ccc(Cl)cc2)nn(-c2cnn(C)c2)c1=O
IC50 (second compound 0.1 µM): 1610 nM
IC50 (second compound 0.316 µM): 1700 nM
IC50 (second compound 1 µM): 1660 nM
IC50 (second compound 3.16 µM): 1720 nM
IC50 (second compound 10 µM): 1260 nM
viability, T/C [1]: 124%
viability, T/C [2]: 122%
viability, T/C [3]: 108%
viability, T/C [4]: 68.3%
viability, T/C [5]: 24%
viability, T/C [6]: 1.8%
viability, T/C [7]: 111%
viability, T/C [8]: 118%
viability, T/C [9]: 111%
viability, T/C [10]: 65.8%
viability, T/C [11]: 30%
viability, T/C [12]: 1.83%
viability, T/C [13]: 121%
viability, T/C [14]: 118%
viability, T/C [15]: 112%
viability, T/C [16]: 64.3%
viability, T/C [17]: 29.6%
viability, T/C [18]: 2.16%
viability, T/C [19]: 115%
viability, T/C [20]: 118%
viability, T/C [21]: 109%
viability, T/C [22]: 70.9%
viability, T/C [23]: 25.9%
viability, T/C [24]: 2.04%
viability, T/C [25]: 111%
viability, T/C [26]: 106%
viability, T/C [27]: 97.2%
viability, T/C [28]: 58.2%
viability, T/C [29]: 16%
viability, T/C [30]: 0.84%

O=C(c1cc(Cc2n[nH]c(=O)c3ccccc23)ccc1F)N1CCN(C(=O)C2CC2)CC1 + CC(CO)NC(=O)c1cc(-c2ccc(Cl)cc2)nn(-c2cnn(C)c2)c1=O
IC50 (second compound 0.1 µM): > 10000 nM
IC50 (second compound 0.316 µM): > 10000 nM
IC50 (second compound 1 µM): > 10000 nM
IC50 (second compound 3.16 µM): > 10000 nM
IC50 (second compound 10 µM): > 10000 nM
viability, T/C [1]: 113%
viability, T/C [2]: 112%
viability, T/C [3]: 109%
viability, T/C [4]: 104%
viability, T/C [5]: 96.3%
viability, T/C [6]: 93.5%
viability, T/C [7]: 110%
viability, T/C [8]: 115%
viability, T/C [9]: 114%
viability, T/C [10]: 104%
viability, T/C [11]: 98.9%
viability, T/C [12]: 89.7%
viability, T/C [13]: 106%
viability, T/C [14]: 113%
viability, T/C [15]: 121%
viability, T/C [16]: 108%
viability, T/C [17]: 110%
viability, T/C [18]: 94.7%
viability, T/C [19]: 122%
viability, T/C [20]: 124%
viability, T/C [21]: 126%
viability, T/C [22]: 105%
viability, T/C [23]: 106%
viability, T/C [24]: 88.5%
viability, T/C [25]: 96.2%
viability, T/C [26]: 107%
viability, T/C [27]: 112%
viability, T/C [28]: 101%
viability, T/C [29]: 99.9%
viability, T/C [30]: 86.9%

— PubChem BioAssay AID1919010 (Molecular Pharmacology Branch, DTP, NCI, 2023)
